Test results from ChEMBL document CHEMBL1201862, “PubChem BioAssay data set” (2004).
Structures can show the parent of a compound that is named as a salt. Calls of active or inactive are those of the source.

Key:
[1] = A cytotoxicity screen of small molecule inhibitors of the PhoP region in Salmonella typhi identified in the primary screen. [Related pubchem assays: 1850, 1864, 1985 ]; type: functional
[2] = tested on: Streptococcus sp. 'group A'; assay: growth inhibition of control SK(-) GAS strain, dose response, counter-screen for streptokinase expression inhibitor project, luminescence, kanamycin, BacTiterGlo, confirmation (AID 1900); type: functional, organism-based
Streptococcus = assay: Group A Streptococcus viability loss, dose response, counter-screen for streptokinase expression inhibitor project, luminescence, BacTiterGlo (AID 1915); type: functional, organism-based;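 also: potency for reduction of bacterial viability or growth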
Cytochrome P450 3A4 = Cytochrome P450 3A4 (Homo sapiens, UniProt P08684);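 also: CYP3A4 tested as one member of a cytochrome P450 panel screen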
[3] = inhibitors of firefly luciferase expression or activity, dose response, H4 neuroglioma cells, luminescence (AID 1990); type: functional, cell-based
[4] = Luminescence Cell-Based Dose Response HTS to Identify Inhibitors of 5'UTR Stem-Loop Driven Prion Protein mRNA Translation in H4 Neuroglioblastoma Cells. [Related pubchem assays: 1827 (Project Summary), 1813 (Primary HTS)]; type: functional
[5] = inhibitors of SNCA 5'UTR-driven reporter translation, confirmation, H4 neuroglioma cells, luminescence (AID 1988); type: functional, cell-based
[6] = cytotoxicity in HEK-293T cells, dose response, cytotoxicity control for TCR NF-kB inhibitor project, luminescence, T-cell screen hits (AID 489026); type: functional, cell-based;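 also: cells exposed to compound about 14 hours before the viability readout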
[7] = microbe, parasite or virus in culture; type: functional; settings: Mycobacterium tuberculosis
[8] = THP-1 cell cytotoxicity, dose response, cytotoxicity control for non-replicating M. tuberculosis project (AID 489025); type: functional
cells = type: functional
BJ [9] = assay: cytotoxicity toward BJ-TERT fibroblasts, dose response, cell-based, RAS-independent, luminescence (AID 1933); type: functional; settings: Homo sapiens
[10] = molecular target: T1, Heat shock factor protein 1 (Mus musculus, UniProt P38532); assay: inhibition of MG132-induced HSE-luciferase signal, confirmation, cell-based, NIH3T3, luminescence, dose retest (AID 2382); type: functional;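 also: NIH3T3 fibroblasts with HSF1-driven luciferase reporter stressed by proteasome inhibitor MG132; luminescence from HSF1-driven luciferase expression after 8 hours of MG132 stress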
T1 sequence (P38532 whole entry): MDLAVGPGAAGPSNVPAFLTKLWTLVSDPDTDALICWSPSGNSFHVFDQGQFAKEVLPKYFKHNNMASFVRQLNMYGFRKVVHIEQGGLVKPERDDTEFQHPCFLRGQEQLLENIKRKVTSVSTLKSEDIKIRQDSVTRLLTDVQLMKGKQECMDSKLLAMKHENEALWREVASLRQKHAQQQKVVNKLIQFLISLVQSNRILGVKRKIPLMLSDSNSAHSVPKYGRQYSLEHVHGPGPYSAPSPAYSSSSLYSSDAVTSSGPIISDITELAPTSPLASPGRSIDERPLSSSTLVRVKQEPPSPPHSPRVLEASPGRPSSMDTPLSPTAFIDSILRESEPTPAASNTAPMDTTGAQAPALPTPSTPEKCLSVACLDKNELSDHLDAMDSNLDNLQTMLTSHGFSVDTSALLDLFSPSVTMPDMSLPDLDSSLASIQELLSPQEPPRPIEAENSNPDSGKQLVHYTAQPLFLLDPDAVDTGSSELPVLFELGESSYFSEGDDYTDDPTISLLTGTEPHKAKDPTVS

BJ [11] = assay: cells; type: functional, cell-based; settings: Homo sapiens
BJ [12] = assay: cytotoxicity toward BJ-TERT-LT-ST fibroblasts, dose response, cell-based, RAS-independent, luminescence (AID 1935); type: functional; settings: Homo sapiens;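 also: BJ fibroblasts immortalized with TERT plus LT and ST oncogenes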
[13] = cytotoxicity toward DRD oncogenic fibroblasts, dose response, cell-based, non-viral oncogenic, luminescence (AID 1934); type: functional; settings: Homo sapiens
BJ [14] = assay: cytotoxicity toward Ras-transformed BJeLR fibroblasts, dose response, cell-based, alamar blue fluorescence, cherrypicked samples (AID 2631); type: functional; settings: Homo sapiens;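 also: confirmatory dose-response assay in RAS-dependent BJ fibroblasts engineered with TERT, LT and ST, with cytotoxicity read by fluorescence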
Cytochrome P450 1A2 = molecular target: T2, Cytochrome P450 1A2 (Homo sapiens, UniProt P05177);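 also: PubChem cytochrome P450 panel assay, CYP1A2 panel member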
T2 sequence (P05177 whole entry): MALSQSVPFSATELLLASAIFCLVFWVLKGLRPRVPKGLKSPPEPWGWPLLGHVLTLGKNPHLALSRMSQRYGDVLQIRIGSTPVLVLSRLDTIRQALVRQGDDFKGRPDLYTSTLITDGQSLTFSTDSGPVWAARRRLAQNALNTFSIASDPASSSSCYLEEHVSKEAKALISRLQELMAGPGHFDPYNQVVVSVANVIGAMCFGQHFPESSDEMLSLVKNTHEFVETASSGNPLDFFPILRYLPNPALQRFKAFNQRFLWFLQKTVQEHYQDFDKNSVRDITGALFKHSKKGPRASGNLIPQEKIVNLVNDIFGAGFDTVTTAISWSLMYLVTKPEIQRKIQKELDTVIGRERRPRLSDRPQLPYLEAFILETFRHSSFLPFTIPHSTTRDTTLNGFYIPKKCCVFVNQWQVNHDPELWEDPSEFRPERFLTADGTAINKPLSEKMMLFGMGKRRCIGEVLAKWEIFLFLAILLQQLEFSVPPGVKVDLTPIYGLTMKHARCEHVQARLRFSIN

Cytochrome P450 2C9 = Cytochrome P450 2C9 (Homo sapiens, UniProt P11712)
[15] = Luminescence Cell-Based Dose Confirmation HTS to Identify Activators of 5'UTR Stem-Loop Driven Alpha-Synuclein mRNA Translation in H4 Neuroglioblastoma Cells. [Related pubchem assays: 1829 (Project Summary), 1814 (Primary HTS)]; type: functional
[16] = Luminescence Cell-Based Dose Response HTS to Identify Activators of Luciferase Translation or Activity in H4 […] Cells. [Related pubchem assays: 1829 (Project Summary), 1814 (Primary HTS)]; type: functional
H4 = assay: Luminescence Cell-Based Dose Response HTS to Identify Activators of 5'UTR Stem-Loop Driven Prion Protein mRNA Translation in H4 Neuroglioblastoma Cells. [Related pubchem assays: 1829 (Project Summary), 1814 (Primary HTS)]; type: functional; settings: Homo sapiens
[17] = molecular target: T3, Calpain-2 catalytic subunit (Sus scrofa, UniProt P43367); assay: pig calpain II inhibitor potency, dose response, biochemical, fluorogenic peptide substrate (AID 1420); type: functional
T3 sequence (P43367 whole entry): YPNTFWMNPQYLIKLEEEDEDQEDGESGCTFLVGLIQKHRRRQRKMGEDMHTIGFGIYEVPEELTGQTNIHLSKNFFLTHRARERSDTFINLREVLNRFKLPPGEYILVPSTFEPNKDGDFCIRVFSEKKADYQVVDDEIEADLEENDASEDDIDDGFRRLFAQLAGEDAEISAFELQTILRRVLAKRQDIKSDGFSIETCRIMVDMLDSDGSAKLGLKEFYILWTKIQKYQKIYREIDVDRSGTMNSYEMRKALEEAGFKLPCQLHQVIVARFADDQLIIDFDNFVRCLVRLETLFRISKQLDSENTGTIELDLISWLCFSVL

Cytochrome P450 2C19 = Cytochrome P450 2C19 (Homo sapiens, UniProt P33261); assay: Cytochrome panel assay with activity outcomes. Panel member name: p450-cyp2c19 Compounds with AC50 equal or less than 10 uM are considered active; type: functional
Sequence of Cytochrome P450 2C19 (P33261 whole entry): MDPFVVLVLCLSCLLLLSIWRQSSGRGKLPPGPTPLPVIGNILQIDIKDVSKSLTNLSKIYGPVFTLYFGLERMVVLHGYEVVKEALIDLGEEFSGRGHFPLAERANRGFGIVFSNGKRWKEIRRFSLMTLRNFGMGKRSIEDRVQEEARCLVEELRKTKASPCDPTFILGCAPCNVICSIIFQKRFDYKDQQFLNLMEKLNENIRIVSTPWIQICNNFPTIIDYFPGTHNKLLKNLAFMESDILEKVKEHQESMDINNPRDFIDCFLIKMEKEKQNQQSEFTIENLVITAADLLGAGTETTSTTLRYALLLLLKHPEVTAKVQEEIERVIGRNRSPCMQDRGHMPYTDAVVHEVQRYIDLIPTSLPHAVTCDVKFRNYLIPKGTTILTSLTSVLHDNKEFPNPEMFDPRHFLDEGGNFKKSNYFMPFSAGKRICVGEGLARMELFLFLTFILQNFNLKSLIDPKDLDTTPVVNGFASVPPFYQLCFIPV

Sequence of Cytochrome P450 2C9 (P11712 whole entry): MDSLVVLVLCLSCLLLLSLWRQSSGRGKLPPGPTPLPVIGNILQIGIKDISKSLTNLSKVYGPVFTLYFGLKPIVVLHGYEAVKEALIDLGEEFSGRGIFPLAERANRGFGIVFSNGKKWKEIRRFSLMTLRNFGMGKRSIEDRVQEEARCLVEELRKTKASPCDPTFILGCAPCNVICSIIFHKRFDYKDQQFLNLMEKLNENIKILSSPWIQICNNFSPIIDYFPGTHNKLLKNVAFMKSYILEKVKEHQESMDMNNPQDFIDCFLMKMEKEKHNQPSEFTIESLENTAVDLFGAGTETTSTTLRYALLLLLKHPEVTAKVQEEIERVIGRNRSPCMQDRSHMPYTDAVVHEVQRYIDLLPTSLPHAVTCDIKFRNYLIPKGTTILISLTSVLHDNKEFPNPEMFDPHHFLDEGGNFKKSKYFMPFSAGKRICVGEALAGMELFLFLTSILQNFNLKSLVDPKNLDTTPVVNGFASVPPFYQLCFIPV
Sequence of Cytochrome P450 3A4 (P08684 whole entry): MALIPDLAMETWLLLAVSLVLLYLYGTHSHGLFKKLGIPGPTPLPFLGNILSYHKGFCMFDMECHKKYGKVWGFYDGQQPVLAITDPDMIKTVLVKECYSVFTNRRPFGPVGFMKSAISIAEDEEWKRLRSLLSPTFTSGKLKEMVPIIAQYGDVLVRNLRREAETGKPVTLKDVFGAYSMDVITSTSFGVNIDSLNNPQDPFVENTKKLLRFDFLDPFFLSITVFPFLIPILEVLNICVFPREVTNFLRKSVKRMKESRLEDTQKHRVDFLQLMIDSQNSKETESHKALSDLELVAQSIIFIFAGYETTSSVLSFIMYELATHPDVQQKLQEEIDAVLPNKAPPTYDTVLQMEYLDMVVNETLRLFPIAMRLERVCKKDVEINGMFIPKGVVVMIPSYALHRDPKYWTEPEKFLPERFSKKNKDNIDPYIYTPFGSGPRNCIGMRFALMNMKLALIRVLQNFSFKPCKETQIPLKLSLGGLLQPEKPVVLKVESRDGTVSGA

Question: Which EC50 [1] does the source give for `NC1CCN(c2nc3c(cc2F)c(=O)c(C(=O)O)cn3-c2ccc(F)cc2F)C1` (stereo unspecified) [TOSUFLOXACIN TOSYLATE] here?
Answer: > 50 µM (active)

Question: And the EC50 [2]?
Answer: 0.276 µM (active)

Question: What about the EC50 (Streptococcus) of the same compound?
Answer: 0.999 µM (active)

Question: Which EC50 [1] does the source give for `C=C(C)Cn1c(-c2ccc(OC)cc2)nc2ccccc21` here?
Answer: > 50 µM (active)

Question: With `CS(=O)(=O)c1cnc2c(-c3ccc(F)cc3)cnn2c1N` as the compound, how does the EC50 [1] read?
Answer: > 50 µM (active)

Question: And the AC50 (Cytochrome P450 3A4)?
Answer: 28.2 µM (inconclusive)

Question: What does the source list for `CCO[C@@H]1OC(C(=O)NCc2nc3ccccc3[nH]2)=C[C@H](C(C)(C)C)[C@H]1CCCO`?
Answer: EC50 [3]: > 60 µM (not active); EC50 [4]: 10.5 µM (active); EC50 [5]: 0.297 µM (inconclusive); IC50 [6]: > 80 µM (inactive)

Question: For `Cc1ccc(S(=O)(=O)/N=C(\CCl)N2CCOCC2)cc1`, which CC50 [7] is on record?
Answer: > 40 µM (active)

Question: And the CC50 [8]?
Answer: 30.1 µM (active)

Question: What about the IC50 (cells) of the same compound?
Answer: 10.8 µM (active)

Question: With `Fc1ccc(NC(S)=NCc2ccccc2Cl)cc1` as the compound, how does the EC50 [1] read?
Answer: > 50 µM (active)

Question: For `Cc1ccc(C(=O)Nc2cc3ccccc3oc2=O)cc1`, which EC50 (BJ [9]) is on record?
Answer: 18.4 µM (active)

Question: And the EC50 [10]?
Answer: 0.21 µM (active)

Question: What about the EC50 (BJ [11]) of the same compound?
Answer: 9.35 µM (active)

Question: What about the EC50 (BJ [12]) of the same compound?
Answer: 24 µM (active)

Question: What about the EC50 [13] of the same compound?
Answer: 6.97 µM (active)

Question: And the IC50 [6]?
Answer: > 80 µM (inactive)

Question: With `CC1CCCCC1N(C)C1CCN(C(=O)CNC(=O)/C=C/c2cccc(Cl)c2)CC1` (stereo unspecified) as the compound, how does the EC50 (BJ [9]) read?
Answer: 2.72 µM (active)

Question: And the EC50 (BJ [11])?
Answer: 2.79 µM (active)

Question: And the EC50 (BJ [12])?
Answer: 2.63 µM (inconclusive)

Question: And the EC50 [13]?
Answer: 3.46 µM (active)

Question: And the EC50 (BJ [14])?
Answer: 1.51 µM (active)

Question: Which AC50 (Cytochrome P450 1A2) does the source give for `COc1ccccc1N1CCN(C[C@@H]2CN3C(=O)N(C)c4ccccc4C3=N2)CC1` here?
Answer: 31.6 µM (inconclusive)

Question: What about the AC50 (Cytochrome P450 2C9) of the same compound?
Answer: inconclusive

Question: For `COc1cc(OC)cc(C(=O)Nc2ccccc2C(=O)N2CCCC2)c1`, which EC50 [15] is on record?
Answer: > 120 µM (not active)

Question: What about the EC50 [16] of the same compound?
Answer: > 120 µM (not active)

Question: What about the EC50 (H4) of the same compound?
Answer: > 120 µM (not active)

Question: What about the AC50 (Cytochrome P450 1A2) of the same compound?
Answer: 14.1 µM (inconclusive)

Question: What about the AC50 (Cytochrome P450 2C9) of the same compound?
Answer: inconclusive

Question: For `O=C1CC(c2cccc(Br)c2)c2cc3c(cc2N1)CCC3` (stereo unspecified), which IC50 [17] is on record?
Answer: > 50 µM (not active)

Question: And the IC50 [6]?
Answer: > 80 µM (inactive)

Question: What does the source list for `Cn1nc(C(F)(F)F)c(/C=N/OC(=O)c2ccc(Cl)cc2)c1Cl`?
Answer: AC50 (Cytochrome P450 2C19): 10 µM (inconclusive); AC50 (Cytochrome P450 2C9): inconclusive
